Reference: ChEMBL document CHEMBL2375214, “Evaluation of anti-HCV activity and SAR study of (+)-lycoricidine through targeting of host heat-stress cognate 70 (Hsc70)” (Bioorg Med Chem Lett, 2013)

How the values were obtained:
[1] = Down regulation of Hsc70 protein expression in Hepatitis C virus-infected human Huh7.5 cells at 0.1 ug/mL after 24 hrs by Western blotting analysis relative to actin expression; format: functional, cell-based; conditions: Huh-7
[2] = Down regulation of Hsc70 protein expression in Hepatitis C virus-infected human Huh7.5 cells […] at 10 ug/mL after 24 hrs by Western blotting analysis relative to actin expression; format: functional, cell-based; conditions: Huh-7
[3] = Down regulation of Hsc70 protein expression in Hepatitis C virus-infected human Huh7.5 cells at 1 ug/mL after 24 hrs by Western blotting analysis relative to actin expression; format: functional, cell-based; conditions: Huh-7
[4] = Down regulation of Hsc70 protein expression in Hepatitis C virus-infected human Huh7.5 cells […] at 1 ug/mL after 24 hrs by Western blotting analysis relative to actin expression; format: functional, cell-based; conditions: Huh-7
[5] = Down regulation of Hsc70 protein expression in Hepatitis C virus-infected human Huh7.5 cells […] at 0.1 ug/mL after 24 hrs by Western blotting analysis relative to actin expression; format: functional, cell-based; conditions: Huh-7
[6] = Down regulation of Hsc70 protein expression in Hepatitis C virus-infected human Huh7.5 cells at 100 ug/mL after 24 hrs by Western blotting analysis relative to actin expression; format: functional, cell-based; conditions: Huh-7
[7] = Down regulation of Hsc70 protein expression in Hepatitis C virus-infected human Huh7.5 cells at 10 ug/mL after 24 hrs by Western blotting analysis relative to actin expression; format: functional, cell-based; conditions: Huh-7
[8] = Down regulation of Hsc70 protein expression in Hepatitis C virus-infected human Huh7.5 cells […] at 100 ug/mL after 24 hrs by Western blotting analysis relative to actin expression; format: functional, cell-based; conditions: Huh-7
Hepatitis C virus [9] = test: Selectivity index, ratio of CC50 for human Huh7.5 cells to EC50 for Hepatitis C virus; format: toxicity, cell-based, Huh-7; conditions: read-out: Ratio CC50/EC50
Hepatitis C virus [10] = test: Antiviral activity against Hepatitis C virus infected in human Huh7.5 cells after 96 hrs by fluorescence microscopic analysis; format: functional, organism-based, Hepacivirus hominis; conditions: huh-7
[11] = Cytotoxicity against human Huh7.5 cells treated after 96 hrs by MTT assay; format: cell-based, Huh-7
[12] = Down regulation of Hsc70 protein expression in Hepatitis C virus-infected human Huh7.5 cells at 0.1 ug/mL after 24 hrs by Western blotting analysis relative to control; format: functional, cell-based; conditions: Huh-7
Huh-7 [13] = test: Inhibition of Hsc70 mRNA expression in Hepatitis C virus-infected human Huh7.5 cells at 100 ug/mL after 24 hrs by RT-PCR analysis relative to control; format: functional; conditions: Huh-7, 24 h
Huh-7 [14] = test: Inhibition of Hsc70 mRNA expression in Hepatitis C virus-infected human Huh7.5 cells at 10 ug/mL after 24 hrs by RT-PCR analysis relative to control; format: functional; conditions: Huh-7, 24 h
[15] = Down regulation of Hsc70 protein expression in Hepatitis C virus-infected human Huh7.5 cells […] at 0.1 ug/mL after 24 hrs by Western blotting analysis relative to control; format: functional, cell-based; parameters: scale not given: the % may be the effect or the level left; conditions: Huh-7

| Structure (SMILES) | selectivity ratio (Hepatitis C virus [9]) | EC50 (Hepatitis C virus [10]) [µM] | CC50 at 96 h [11] [µM] | other results |
| --- | --- | --- | --- | --- |
| O[C@H]1[C@@H]2c3cc4c(cc3CN3CC[C@@H](C[C@H]1O)[C@H]23)OCO4 | – | – | – | fold change (FC) [1]: 1.01; fold change (FC) [2]: 1.22; fold change (FC) [3]: 0.68; fold change (FC) [4]: 1.16; fold change (FC) [5]: 1.2; fold change (FC) [6]: 0.67; fold change (FC) [7]: 0.6; fold change (FC) [8]: 0.1 |
| CO[C@@H]1[C@H](OC)[C@@H](OC)C=C2c3cc4c(cc3C(=O)N(C)[C@H]21)OCO4 | 8.2 | 22 | 180 | – |
| CO[C@@H]1[C@H](OC)[C@@H](OC)C[C@@H]2c3cc4c(cc3C(=O)N(C)[C@@H]12)OCO4 | > 5.56 | 54 | > 300 | – |
| CC(=O)O[C@H]1C[C@@H]2c3cc4c(cc3C(=O)N[C@H]2[C@@H]2OC(C)(C)O[C@@H]21)OCO4 | 3.03 | 89 | 270 | – |
| CC1(C)O[C@H]2[C@@H]3NC(=O)c4cc5c(cc4[C@H]3C[C@H](O)[C@H]2O1)OCO5 | < 25.5 | > 11 | 280 | – |
| CCO[C@H]1C[C@@H]2c3cc4c(cc3C(=O)N(CC)[C@H]2[C@@H]2OC(C)(C)O[C@@H]21)OCO4 | 3.06 | 85 | 260 | – |
| CC(=O)O[C@H]1C=C2c3cc4c(cc3C(=O)N[C@H]2[C@@H]2OC(C)(C)O[C@@H]21)OCO4 | > 4.76 | 63 | > 300 | – |
| O=C1N[C@H]2[C@H](O)[C@H](O)[C@@H](O)C[C@@H]2c2cc3c(cc21)OCO3 | 33.8 | 0.68 | 23 | – |
| C=CCO[C@H]1C=C2c3cc4c(cc3C(=O)N(CC=C)[C@H]2[C@@H]2OC(C)(C)O[C@@H]21)OCO4 | 6.25 | 40 | 250 | – |
| CCO[C@H]1C=C2c3cc4c(cc3C(=O)N(CC)[C@H]2[C@@H]2OC(C)(C)O[C@@H]21)OCO4 | 12 | 15 | 180 | – |
| CCO[C@@H]1[C@H](OCC)[C@@H](OCC)C=C2c3cc4c(cc3C(=O)N(CC)[C@H]21)OCO4 | < 3.01 | > 83 | 252 | – |
| O=C1N[C@@H]2C(=C[C@H](O)[C@@H](O)[C@H]2O)c2cc3c(cc21)OCO3 | 12.7 | 0.55 | 7.2 | Activity [12]: 28%; inhibition at 100 µg/mL (Huh-7 [13]): 83.1%; fold change (FC) [1]: 0.72; fold change (FC) [5]: 0.06; inhibition at 10 µg/mL (Huh-7 [14]): 91.4%; Activity [15]: 6% |
| O[C@@H]1[C@@H](O)C=C2CCN3Cc4cc5c(cc4[C@H]1C23)OCO5 (stereo partly specified) | – | – | – | fold change (FC) [1]: 0.78; fold change (FC) [3]: 0.79; fold change (FC) [4]: 0.2; fold change (FC) [5]: 1.86 |
| CC1(C)O[C@@H]2[C@H](O1)[C@@H](OCc1ccccc1)C=C1c3cc4c(cc3C(=O)N(Cc3ccccc3)[C@H]12)OCO4 | 3.08 | 65 | 200 | – |
| O[C@@H]1[C@H](O)[C@@H](O)C=C2c3cc4c(cc3CN[C@H]21)OCO4 | > 10.9 | 33 | > 360 | – |
| CO[C@H]1C[C@@H]2c3cc4c(cc3C(=O)N(C)[C@H]2[C@@H]2OC(C)(C)O[C@@H]21)OCO4 | 2.17 | 92 | 250 | – |
| CC(=O)O[C@@H]1[C@H](OC(C)=O)[C@@H](OC(C)=O)C=C2c3cc4c(cc3C(=O)N[C@H]21)OCO4 [LYCORICIDINE TRIACETATE] | < 33.8 | > 0.98 | 33 | – |
| C=CCO[C@@H]1[C@H](OCC=C)[C@@H](OCC=C)C[C@@H]2c3cc4c(cc3C(=O)N(CC=C)[C@@H]12)OCO4 | 3.17 | 12 | 38 | – |
| CC1(C)O[C@@H]2[C@H](O1)[C@@H](O[Si](C)(C)C(C)(C)C)C=C1c3cc4c(cc3C(=O)N[C@H]12)OCO4 | 2.13 | 75 | 160 | – |
| CCO[C@@H]1[C@H](OCC)[C@@H](OCC)C[C@@H]2c3cc4c(cc3C(=O)N(CC)[C@@H]12)OCO4 | > 6.98 | 43 | > 300 | – |
| CC1(C)O[C@@H]2[C@H](O1)[C@@H](O)C=C1c3cc4c(cc3C(=O)N[C@H]12)OCO4 | 9.09 | 11 | 170 | – |
| CO[C@H]1C=C2c3cc4c(cc3C(=O)N(C)[C@H]2[C@@H]2OC(C)(C)O[C@@H]21)OCO4 | 3.01 | 93 | 280 | – |
| C=CCO[C@@H]1[C@H](OCC=C)[C@@H](OCC=C)C=C2c3cc4c(cc3C(=O)N(CC=C)[C@H]21)OCO4 | 1.62 | 74 | 120 | – |
